Here are results for two compounds from US20080287653A1, “METHOD FOR PRODUCING INHIBITORS AND INHIBITORS FORMED THEREFROM” (THE UNIVERSITY OF AKRON, priority 2007, published 2008).

Non-standard residues stand in square brackets, D forms with d. Residues, ends and D or L forms follow the SMILES beside them. Lys(Thioacetyl) = CC(=S)NCCCC[C@H](N)C(=O)O

Test [1] addresses T1, SIRT3 (Homo sapiens, UniProt Q9NTG7).
T1 construct: purchased
T1 sequence (Q9NTG7 1-399): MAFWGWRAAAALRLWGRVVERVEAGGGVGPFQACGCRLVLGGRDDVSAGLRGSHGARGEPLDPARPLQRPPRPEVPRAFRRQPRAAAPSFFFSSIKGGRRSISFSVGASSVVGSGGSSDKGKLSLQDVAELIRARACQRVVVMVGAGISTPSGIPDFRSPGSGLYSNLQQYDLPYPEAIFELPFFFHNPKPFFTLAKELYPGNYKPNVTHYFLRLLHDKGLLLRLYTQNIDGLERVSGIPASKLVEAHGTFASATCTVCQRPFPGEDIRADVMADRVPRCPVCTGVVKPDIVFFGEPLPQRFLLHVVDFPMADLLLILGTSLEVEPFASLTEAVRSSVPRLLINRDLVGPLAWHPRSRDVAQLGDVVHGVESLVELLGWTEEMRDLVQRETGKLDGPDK
The test is described as follows: HPLC-based SIRT3 inhibition assay with purified SIRT3. Format: biochemical. As to conditions: SIRT3 vs SIRT2. As for the experimental part: (§1) Inhibition assays with purified SIRT1, SIRT2, and SIRT3. GST-SIRT1 that could be produced in a laboratory was used for the SIRT1 inhibition assay. SIRT2 and SIRT3 are obtainable from commercial sources known to those skilled in the art. Consistent HPLC-based assay procedures were used for the inhibition assays with SIRT1, SIRT2, and SIRT3. In brief, an inhibition assay solution had the following components: 25 mM (or 50 mM for SIRT2 assay) Tris.HCl (pH 8.0) 137 mM NaCl, 2.7 mM KCl, 1 mM MgCl2, 1 mg/mL BSA (SIGMA Cat. #A3803 with reduced fatty acid content, for SIRT2 assay only), 0.5 mM β-NAD^+, 0.3 mM peptide substrate (peptide 1b for SIRT1 and SIRT2 assays; peptide 3b for SIRT3 assay), an inhibitor (peptide 1a, 2, or 3a) with varied concentrations including 0, and an enzyme (GST-SIRT1, 0.15 μM; SIRT2, 0.3 μM; or SIRT3, 2.0 μM). […] An enzymatic reaction was initiated by the addition of an enzyme at 37° C. and was allowed to be incubated at 37° C.: 10 minutes as follows: for SIRT1 assay, or 60 minutes for SIRT2 and SIRT3 assays. […] The enzymatic deacetylation products (peptide 1c in SIRT1 and SIRT2 assays; peptide 3c in SIRT3 assay) were confirmed by their comigration with the chemically synthesized authentic samples and by MALDI-TOF mass spectrometric analysis, and were quantified by HPLC peak integration and comparison with those of synthetic authentic samples. […]

Test [2] deals with SIRT1, SIRT2, and SIRT3. The test can be described thus: Dethioacetylation of inhibitor peptides under the sirtuin inhibition assay conditions. Format: biochemical, human. As to conditions: same assay conditions as SIRT1/SIRT2/SIRT3 inhibition assays. As for the experimental part:
Inhibition assays with purified SIRT1, SIRT2, and SIRT3. GST-SIRT1 that could be produced in a laboratory was used for the SIRT1 inhibition assay. SIRT2 and SIRT3 are obtainable from commercial sources known to those skilled in the art. Consistent HPLC-based assay procedures were used for the inhibition assays with SIRT1, SIRT2, and SIRT3. In brief, an inhibition assay solution had the following components: 25 mM (or 50 mM for SIRT2 assay) Tris.HCl (pH 8.0) 137 mM NaCl, 2.7 mM KCl, 1 mM MgCl2, 1 mg/mL BSA (SIGMA Cat. #A3803 with reduced fatty acid content, for SIRT2 assay only), 0.5 mM β-NAD^+, 0.3 mM peptide substrate (peptide 1b for SIRT1 and SIRT2 assays; peptide 3b for SIRT3 assay), an inhibitor (peptide 1a, 2, or 3a) with varied concentrations including 0, and an enzyme (GST-SIRT1, 0.15 μM; SIRT2, 0.3 μM; or SIRT3, 2.0 μM). […] An enzymatic reaction was initiated by the addition of an enzyme at 37° C. and was allowed to be incubated at 37° C.: 10 minutes as follows: for SIRT1 assay, or 60 minutes for SIRT2 and SIRT3 assays. Incubation was quenched at the indicated time with the following stop solution: 100 mM HCl and 0.16 M acetic acid. The conversion of the limiting substrate to the product was maintained at ≦12%. The quenched assay solutions were directly injected into a reversed-phase HPLC C18 column (100 Å, 0.46×25 cm), eluting with the following gradients of ddH2O containing 0.05% (v/v) trifluoroacetic acid (mobile phase A) and acetonitrile containing 0.05% (v/v) trifluoroacetic acid (mobile phase B): linear increase from 0% B to 35% B (for SIRT1 assay) or 40% B (for SIRT2 and SIRT3 assays) from 0-40 minutes (1 mL/min), and UV monitoring at 214 nm. The enzymatic deacetylation products (peptide 1c in SIRT1 and SIRT2 assays; peptide 3c in SIRT3 assay) were confirmed by their comigration with the chemically synthesized authentic samples and by MALDI-TOF mass spectrometric analysis, and were quantified by HPLC peak integration and comparison with those of synthetic authentic samples. […] All peptide stock solutions were prepared in ddH2O. […]

In test [3] the target is T2, SIRT2 (Homo sapiens, UniProt Q8IXJ6).
T2 construct: purchased
T2 sequence (Q8IXJ6 1-389): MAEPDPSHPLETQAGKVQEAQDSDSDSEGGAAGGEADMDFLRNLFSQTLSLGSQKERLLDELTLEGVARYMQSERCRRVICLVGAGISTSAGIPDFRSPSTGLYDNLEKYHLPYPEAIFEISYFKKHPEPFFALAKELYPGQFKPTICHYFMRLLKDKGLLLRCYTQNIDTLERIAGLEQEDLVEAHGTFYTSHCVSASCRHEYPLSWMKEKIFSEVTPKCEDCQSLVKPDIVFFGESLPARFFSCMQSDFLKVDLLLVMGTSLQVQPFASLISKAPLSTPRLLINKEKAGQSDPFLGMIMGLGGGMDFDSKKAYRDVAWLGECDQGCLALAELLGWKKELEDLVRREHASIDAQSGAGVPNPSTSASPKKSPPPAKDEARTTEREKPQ
The test is described as follows: HPLC-based SIRT2 inhibition assay with purified SIRT2. Format: biochemical. The following applies: SIRT2 vs SIRT3. The method, then:
as §1

As to `CC[C@H](C)[C@H](NC(=O)[C@@H](NC(=O)[C@H](CCCCNC(C)=S)NC(=O)[C@H](CC(=O)O)NC(=O)[C@H](CO)NC(=O)[C@@H]1CCCN1C(=O)[C@@H](N)CCSC)[C@@H](C)O)C(=O)NCC(=O)NCC(=O)O` [Peptide 2] (H-MPSD[Lys(Thioacetyl)]TIGG-OH), the “inhibition weaker for SIRT3 as compared to SIRT2” value in test [1] is recorded as “about 40 fold”. Further, the “formation of dethioacetylated peptide under sirtuin inhibition assay conditions” value in test [2] was “detectable formation”.

For the compound `CC[C@H](C)[C@H](NC(=O)[C@@H](NC(=O)[C@H](CCCCN)NC(=O)[C@H](CCCNC(=N)N)NC(=O)[C@H](CC(C)C)NC(=O)[C@H](CC(C)C)NC(=O)[C@H](CCCNC(=N)N)NC(=O)[C@H](CCCNC(=N)N)NC(=O)[C@H](CCSC)NC(=O)[C@@H](NC(=O)[C@H](CCCCNC(C)=S)NC(=O)CNC(=O)[C@H](CO)NC(=O)[C@H](CCCNC(=N)N)NC(=O)[C@@H](NC(=O)[C@H](CCCCN)NC(=O)[C@@H]1CCCN1C(=O)[C@H](CC(C)C)NC(=O)[C@H](CCCNC(=N)N)NC(=O)[C@@H](N)CCCCN)[C@@H](C)O)C(C)C)[C@@H](C)CC)C(=O)O` [Peptide 3a] (H-KRLPKTRSG[Lys(Thioacetyl)]VMRRLLRKII-OH), the “inhibition potency for SIRT2 relative to SIRT3” value in test [3] was “comparably potent inhibitor”. Further, the “formation of dethioacetylated peptide under sirtuin inhibition assay conditions” value in test [2] is listed as “did not give rise to detectable formation”.
